# Source: patent US10253052B2, “HBED-bisphosphonates, radiometal conjugates and their use as theranostic agents” (Five Eleven Pharma Inc., priority 2015, dated 2019)
# Where “and” joins values, the source holds several entries; their conditions need not be identical. Identical values can stand only once. Marks after values point to notes of the source that are not given here.
# Tests used:
# [1] = Micro-PET imaging in normal mice; type: in vivo, normal CD-1 male mice; details: 15 min scan at 60 min post-injection
# Protocol: [^68Ga]1a, [^68Ga]BPAMD and [^18F]NaF were tested in normal CD-1 male mice. [^68Ga]1g was tested in PSMA expressing LNCaP tumor bearing nude mice. Mice received 300-500 uCi radiotracer through a tail vein injection. PET imaging was performed under isoflurane anaesthesia (2% isoflurane, 1.5 L/min oxygen). The microPET imaging was performed with a small animal PET (Mosaic by Phillips, USA). During PET measurements, the animals were placed in the prone position. At 60 min post injection of the radiotracer, data acquisition was performed for 15 min.
# [2] = In vitro binding to hydroxyapatite; details: 20 mg hydroxyapatite in saline, 10 min at room temperature
# Summary of the method: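 Binding is given as the percentage of ^68Ga activity retained by hydroxyapatite, measured by gamma counting of the solid versus the pooled supernatant and saline washes. The tracer (1 μCi) was exposed for 10 min at room temperature to hydroxyapatite pre-soaked 24 h in isotonic saline.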
# [3] = In vivo biodistribution in mice; parameters: species or system normal CD-1 male mice; details: for bone to blood ratio / bone to muscle ratio / Biodistribution: Blood / Biodistribution: Bone / Biodistribution: Brain / Biodistribution: Heart / Biodistribution: Kidney / Biodistribution: Liver / Biodistribution: Lung / Biodistribution: Muscle / Biodistribution: Pancreas / Biodistribution: Skin / Biodistribution: Spleen: iv
# Summary of the method: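 Uptake values are % injected dose per gram of wet tissue, from gamma counting of weighed organs with tibia plus femur taken as bone. Tracers (20-30 μCi per animal) were given i.v. to healthy male CD-1 mice (25-30 g), with sacrifice at 2, 30, 60 and 120 min post injection.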
smiles,measurement,setting,value
"[18F-].[Na+] [[^18F]NaF, reference compound]",Micro-PET localization (in words),[1],localized in the spines of mice
same,Hydroxyapatite Binding (%),[2],78.4 ± 3.9%
same,bone to blood ratio,[3]; 2 min,1.9
same,bone to muscle ratio,[3]; 2 min,7.2
same,Biodistribution: Blood,[3]; 2 min post injection,5.56 ± 0.37 % dose/g
same,Biodistribution: Bone,[3]; 2 min post injection,10.8 ± 0.51 % dose/g
same,Biodistribution: Brain,[3]; 2 min post injection,0.22 ± 0.07 % dose/g
same,Biodistribution: Heart,[3]; 2 min post injection,2.80 ± 0.24 % dose/g
same,Biodistribution: Kidney,[3]; 2 min post injection,10.4 ± 1.22 % dose/g
same,Biodistribution: Liver,[3]; 2 min post injection,2.56 ± 0.24 % dose/g
same,Biodistribution: Lung,[3]; 2 min post injection,3.37 ± 0.17 % dose/g
same,Biodistribution: Muscle,[3]; 2 min post injection,1.50 ± 0.06 % dose/g
same,Biodistribution: Pancreas,[3]; 2 min post injection,1.76 ± 0.07 % dose/g
same,Biodistribution: Skin,[3]; 2 min post injection,2.35 ± 0.45 % dose/g
same,Biodistribution: Spleen,[3]; 2 min post injection,2.33 ± 0.14 % dose/g
same,bone to blood ratio,[3]; 30 min,38
same,bone to muscle ratio,[3]; 30 min,73
same,Biodistribution: Blood,[3]; 30 min (0.5 hr) post injection,0.64 ± 0.08 % dose/g
same,Biodistribution: Bone,[3]; 30 min (0.5 hr) post injection,24.2 ± 2.71 % dose/g
same,Biodistribution: Brain,[3]; 30 min (0.5 hr) post injection,0.10 ± 0.02 % dose/g
same,Biodistribution: Heart,[3]; 30 min (0.5 hr) post injection,0.96 ± 0.23 % dose/g
same,Biodistribution: Kidney,[3]; 30 min (0.5 hr) post injection,1.70 ± 0.62 % dose/g
same,Biodistribution: Liver,[3]; 30 min (0.5 hr) post injection,0.65 ± 0.17 % dose/g
same,Biodistribution: Lung,[3]; 30 min (0.5 hr) post injection,0.55 ± 0.11 % dose/g
same,Biodistribution: Muscle,[3]; 30 min (0.5 hr) post injection,0.33 ± 0.11 % dose/g
same,Biodistribution: Pancreas,[3]; 30 min (0.5 hr) post injection,0.42 ± 0.27 % dose/g
same,Biodistribution: Skin,[3]; 30 min (0.5 hr) post injection,0.51 ± 0.11 % dose/g
same,Biodistribution: Spleen,[3]; 30 min (0.5 hr) post injection,0.93 ± 0.56 % dose/g
same,bone to blood ratio,[3]; 60 min,161
same,bone to muscle ratio,[3]; 60 min,291 and 281
same,Biodistribution: Blood,[3]; 60 min (1 hr) post injection,0.15 ± 0.01 % dose/g
same,Biodistribution: Bone,[3]; 60 min (1 hr) post injection,24.6±3.2 % dose/g and 24.6 ± 3.18 % dose/g
same,Biodistribution: Brain,[3]; 60 min (1 hr) post injection,0.06 ± 0.01 % dose/g
same,Biodistribution: Heart,[3]; 60 min (1 hr) post injection,0.18 ± 0.02 % dose/g
same,Biodistribution: Kidney,[3]; 60 min (1 hr) post injection,0.68 ± 0.36 % dose/g
same,Biodistribution: Liver,[3]; 60 min (1 hr) post injection,0.13 ± 0.01 % dose/g
same,Biodistribution: Lung,[3]; 60 min (1 hr) post injection,0.14 ± 0.01 % dose/g
same,Biodistribution: Muscle,[3]; 60 min (1 hr) post injection,0.09 ± 0.02 % dose/g
same,Biodistribution: Pancreas,[3]; 60 min (1 hr) post injection,0.07 ± 0.00 % dose/g
same,Biodistribution: Skin,[3]; 60 min (1 hr) post injection,0.11 ± 0.02 % dose/g
same,Biodistribution: Spleen,[3]; 60 min (1 hr) post injection,0.12 ± 0.02 % dose/g
same,bone to blood ratio,[3]; 120 min,760
same,bone to muscle ratio,[3]; 120 min,593
same,Biodistribution: Blood,[3]; 120 min post injection,0.03 ± 0.00 % dose/g
same,Biodistribution: Bone,[3]; 120 min post injection,25.2 ± 3.89 % dose/g
same,Biodistribution: Brain,[3]; 120 min post injection,0.04 ± 0.00 % dose/g
same,Biodistribution: Heart,[3]; 120 min post injection,0.04 ± 0.00 % dose/g
same,Biodistribution: Kidney,[3]; 120 min post injection,0.57 ± 0.43 % dose/g
same,Biodistribution: Liver,[3]; 120 min post injection,0.03 ± 0.01 % dose/g
same,Biodistribution: Lung,[3]; 120 min post injection,0.04 ± 0.01 % dose/g
same,Biodistribution: Muscle,[3]; 120 min post injection,0.04 ± 0.04 % dose/g
same,Biodistribution: Pancreas,[3]; 120 min post injection,0.02 ± 0.00 % dose/g
same,Biodistribution: Skin,[3]; 120 min post injection,0.03 ± 0.00 % dose/g
same,Biodistribution: Spleen,[3]; 120 min post injection,0.03 ± 0.01 % dose/g
O=C([O-])CN1CCN(CC(=O)[O-])CCN(CC(=O)NCCNC(=O)CCc2ccc(O)c(CN(CCN(CC(=O)O)Cc3cc(CCC(=O)NC(P(=O)(O)O)P(=O)(O)O)ccc3O)CC(=O)O)c2)CCN(CC(=O)[O-])CC1.[177Lu+3] [[^177Lu]1h],Hydroxyapatite Binding (%),[2],90.9 ± 1.1%
same,bone to blood ratio,[3]; 30 min,24
same,bone to muscle ratio,[3]; 30 min,41
same,Biodistribution: Blood,[3]; 30 min (0.5 hr) post injection,0.54 ± 0.11 % dose/g
same,Biodistribution: Bone,[3]; 30 min (0.5 hr) post injection,12.4 ± 1.19 % dose/g
same,Biodistribution: Brain,[3]; 30 min (0.5 hr) post injection,0.03 ± 0.01 % dose/g
same,Biodistribution: Heart,[3]; 30 min (0.5 hr) post injection,0.23 ± 0.05 % dose/g
same,Biodistribution: Kidney,[3]; 30 min (0.5 hr) post injection,1.21 ± 0.94 % dose/g
same,Biodistribution: Liver,[3]; 30 min (0.5 hr) post injection,0.20 ± 0.03 % dose/g
same,Biodistribution: Lung,[3]; 30 min (0.5 hr) post injection,1.35 ± 1.52 % dose/g
same,Biodistribution: Muscle,[3]; 30 min (0.5 hr) post injection,0.39 ± 0.24 % dose/g
same,Biodistribution: Pancreas,[3]; 30 min (0.5 hr) post injection,0.15 ± 0.03 % dose/g
same,Biodistribution: Skin,[3]; 30 min (0.5 hr) post injection,0.41 ± 0.12 % dose/g
same,Biodistribution: Spleen,[3]; 30 min (0.5 hr) post injection,0.15 ± 0.04 % dose/g
same,bone to blood ratio,[3]; 60 min,97
same,bone to muscle ratio,[3]; 60 min,200
same,Biodistribution: Blood,[3]; 60 min (1 hr) post injection,0.12 ± 0.02 % dose/g
same,Biodistribution: Bone,[3]; 60 min (1 hr) post injection,11.4±0.3 % dose/g and 11.4 ± 0.31 % dose/g
same,Biodistribution: Brain,[3]; 60 min (1 hr) post injection,0.01 ± 0.00 % dose/g
same,Biodistribution: Heart,[3]; 60 min (1 hr) post injection,0.08 ± 0.02 % dose/g
same,Biodistribution: Kidney,[3]; 60 min (1 hr) post injection,1.48 ± 0.60 % dose/g
same,Biodistribution: Liver,[3]; 60 min (1 hr) post injection,0.13 ± 0.03 % dose/g
same,Biodistribution: Lung,[3]; 60 min (1 hr) post injection,0.20 ± 0.05 % dose/g
same,Biodistribution: Muscle,[3]; 60 min (1 hr) post injection,0.06 ± 0.01 % dose/g
same,Biodistribution: Pancreas,[3]; 60 min (1 hr) post injection,0.07 ± 0.02 % dose/g
same,Biodistribution: Skin,[3]; 60 min (1 hr) post injection,0.11 ± 0.03 % dose/g
same,Biodistribution: Spleen,[3]; 60 min (1 hr) post injection,0.07 ± 0.01 % dose/g
same,Biodistribution: Blood,[3]; 6 hr post injection,0.016 ± 0.007 % dose/g
same,Biodistribution: Bone,[3]; 6 hr post injection,12.7 ± 0.90 % dose/g
same,Biodistribution: Brain,[3]; 6 hr post injection,0.003 ± 0.003 % dose/g
same,Biodistribution: Heart,[3]; 6 hr post injection,0.024 ± 0.005 % dose/g
same,Biodistribution: Kidney,[3]; 6 hr post injection,0.686 ± 0.191 % dose/g
same,Biodistribution: Liver,[3]; 6 hr post injection,0.088 ± 0.021 % dose/g
same,Biodistribution: Lung,[3]; 6 hr post injection,0.062 ± 0.006 % dose/g
same,Biodistribution: Muscle,[3]; 6 hr post injection,0.031 ± 0.011 % dose/g
same,Biodistribution: Pancreas,[3]; 6 hr post injection,0.021 ± 0.001 % dose/g
same,Biodistribution: Skin,[3]; 6 hr post injection,0.052 ± 0.006 % dose/g
same,Biodistribution: Spleen,[3]; 6 hr post injection,0.038 ± 0.005 % dose/g
same,bone to blood ratio,[3]; 6 hr post-injection,909^a
same,bone to muscle ratio,[3]; 6 hr post-injection,454^a
same,Biodistribution: Blood,[3]; 24 hr post injection,0.003 ± 0.001 % dose/g
same,Biodistribution: Bone,[3]; 24 hr post injection,11.6 ± 1.14 % dose/g
same,Biodistribution: Brain,[3]; 24 hr post injection,0.014 ± 0.016 % dose/g
same,Biodistribution: Heart,[3]; 24 hr post injection,0.014 ± 0.003 % dose/g
same,Biodistribution: Kidney,[3]; 24 hr post injection,0.411 ± 0.125 % dose/g
same,Biodistribution: Liver,[3]; 24 hr post injection,0.068 ± 0.013 % dose/g
same,Biodistribution: Lung,[3]; 24 hr post injection,0.040 ± 0.003 % dose/g
same,Biodistribution: Muscle,[3]; 24 hr post injection,0.021 ± 0.005 % dose/g
same,Biodistribution: Pancreas,[3]; 24 hr post injection,0.013 ± 0.005 % dose/g
same,Biodistribution: Skin,[3]; 24 hr post injection,0.042 ± 0.008 % dose/g
same,Biodistribution: Spleen,[3]; 24 hr post injection,0.034 ± 0.005 % dose/g
same,bone to blood ratio,[3]; 24 hr post-injection,4312^b^
same,bone to muscle ratio,[3]; 24 hr post-injection,572^b
same,"Biodistribution result in words (organ uptake, retention, excretion)",[3]; normal mice after iv injection,"excellent bone uptake, retention in bone and fast kidney excretion"
